Reference: publication PMC10897476, “Pyridylpiperazine efflux pump inhibitor boosts in vivo antibiotic efficacy against K. pneumoniae” (EMBO Molecular Medicine, 2023)
“And” between values parts separate entries of the source, which are not always exact repeats. Equal values may be shown once.

System: K. pneumoniae AcrB^V448E
Assay: Checkerboard assay levofloxacin x EPI, AcrB V448E mutant
Assay type: cell-based, Klebsiella pneumoniae
Details: for checkerboard growth readout: ATCC43816 AcrBV448E, EPI 0 µM; for percentage resazurin turnover: listed as Lev
Experimental: MIC experiments were carried out according to the CLSI guidelines (CLSI [2023]). Overnight cultures were diluted to an OD600 = 0.001 in CAMHB followed by addition of efflux pump inhibitors (EPIs) at a final concentration of 100 µM. […] Plates were incubated at 37 °C for up to 20 h. Bacterial viability was evaluated using the resazurin microtitre assay (REMA) and measured by fluorescence using a Tecan Spaert multimode plate reader (Ex: 530 nm Em: 590 nm). MICs were defined as the concentration that prevented 90% of resazurin turnover compared to the non-treated bacteria.
Bacterial suspensions, incubation and plate readouts were carried out as described above.

[1] = Lev 0.24 ng/mL, BDM91288 0.00 uM
[2] = Lev 0.49 ng/mL, BDM91288 0.00 uM
[3] = Lev 0.98 ng/mL, BDM91288 0.00 uM
[4] = Lev 1.95 ng/mL, BDM91288 0.00 uM
[5] = Lev 3.91 ng/mL, BDM91288 0.00 uM
[6] = Lev 7.81 ng/mL, BDM91288 0.00 uM
[7] = Lev 15.63 ng/mL, BDM91288 0.00 uM
[8] = Lev 31.25 ng/mL, BDM91288 0.00 uM
[9] = Lev 62.50 ng/mL, BDM91288 0.00 uM
[10] = Lev 500.00 ng/mL, BDM91288 0.00 uM
[11] = Lev 1000 ng/mL, BDM91288 0.00 uM

For `C[C@H]1COc2c(N3CCN(C)CC3)c(F)cc3c(=O)c(C(=O)O)cn1c23` [Levofloxacin], which checkerboard growth readout (levofloxacin 15.625 ng/mL) is on record?
The checkerboard growth readout was 117 and 89.

What about the checkerboard growth readout (levofloxacin 31.25 ng/mL) of the same compound?
Its checkerboard growth readout is 91 and 81.

What about the “Median REMA values” [1] of the same compound?
Its value is 88%.

And the percentage resazurin turnover [1]?
The percentage resazurin turnover was 93% and 88% and 53%.

What about the “Median REMA values” (Lev 0.24 ng/mL, PABN 0.00 uM) of the same compound?
Its value is 81%.

And the percentage resazurin turnover (Lev 0.24 ng/mL, PABN 0.00 uM)?
Its percentage resazurin turnover is 88% and 81% and 56%.

And the “Median REMA values” [2]?
The value was 105%.

What about the percentage resazurin turnover [2] of the same compound?
Its percentage resazurin turnover is 102% and 108% and 105%.

And the “Median REMA values” (Lev 0.49 ng/mL, PABN 0.00 uM)?
The value was 70%.

What about the percentage resazurin turnover (Lev 0.49 ng/mL, PABN 0.00 uM) of the same compound?
The percentage resazurin turnover was 68% and 101% and 70%.

What about the “Median REMA values” [3] of the same compound?
The value was 98%.

What about the percentage resazurin turnover [3] of the same compound?
The percentage resazurin turnover was 98% and 105% and 79%.

What about the “Median REMA values” (Lev 0.98 ng/mL, PABN 0.00 uM) of the same compound?
The value was 106%.

And the percentage resazurin turnover (Lev 0.98 ng/mL, PABN 0.00 uM)?
The percentage resazurin turnover was 106% and 107% and 72%.

And the “Median REMA values” [4]?
The value was 108%.

What about the percentage resazurin turnover [4] of the same compound?
Its percentage resazurin turnover is 108% and 109% and 104%.

And the “Median REMA values” (Lev 1.95 ng/mL, PABN 0.00 uM)?
The value was 104%.

What about the percentage resazurin turnover (Lev 1.95 ng/mL, PABN 0.00 uM) of the same compound?
Its percentage resazurin turnover is 104% and 118% and 78%.

What about the “Median REMA values” [5] of the same compound?
The value was 107%.

And the percentage resazurin turnover [5]?
Its percentage resazurin turnover is 107% and 111% and 81%.

What about the “Median REMA values” (Lev 3.91 ng/mL, PABN 0.00 uM) of the same compound?
Its value is 101%.

What about the percentage resazurin turnover (Lev 3.91 ng/mL, PABN 0.00 uM) of the same compound?
Its percentage resazurin turnover is 101% and 111% and 73%.

And the “Median REMA values” [6]?
The value was 111%.

What about the percentage resazurin turnover [6] of the same compound?
The percentage resazurin turnover was 111% and 76%.

What about the “Median REMA values” (Lev 7.81 ng/mL, PABN 0.00 uM) of the same compound?
Its value is 91%.

And the percentage resazurin turnover (Lev 7.81 ng/mL, PABN 0.00 uM)?
Its percentage resazurin turnover is 91% and 110% and 79%.

What about the “Median REMA values” [7] of the same compound?
The value was 117%.

What about the percentage resazurin turnover [7] of the same compound?
The percentage resazurin turnover was 117% and 105%.

What about the “Median REMA values” (Lev 15.63 ng/mL, PABN 0.00 uM) of the same compound?
The value was 89%.

And the percentage resazurin turnover (Lev 15.63 ng/mL, PABN 0.00 uM)?
The percentage resazurin turnover was 119% and 89% and 72%.

What about the “Median REMA values” [8] of the same compound?
The value was 91%.

And the percentage resazurin turnover [8]?
The percentage resazurin turnover was 91% and 87% and 102%.

And the “Median REMA values” (Lev 31.25 ng/mL, PABN 0.00 uM)?
Its value is 81%.

And the percentage resazurin turnover (Lev 31.25 ng/mL, PABN 0.00 uM)?
The percentage resazurin turnover was 81% and 70%.

And the “Median REMA values” [9]?
The value was -0.206%.

And the percentage resazurin turnover [9]?
Its percentage resazurin turnover is -0.206% and -0.287% and -0.155%.

And the “Median REMA values” (Lev 62.50 ng/mL, PABN 0.00 uM)?
Its value is -0.817%.

What about the percentage resazurin turnover (Lev 62.50 ng/mL, PABN 0.00 uM) of the same compound?
Its percentage resazurin turnover is -0.685% and -0.817% and -0.819%.

And the “Median REMA values” [10]?
The value was -0.289%.

What about the percentage resazurin turnover [10] of the same compound?
The percentage resazurin turnover was -0.289% and -0.371% and 0.114%.

What about the “Median REMA values” (Lev 500.00 ng/mL, PABN 0.00 uM) of the same compound?
Its value is -0.75%.

What about the percentage resazurin turnover (Lev 500.00 ng/mL, PABN 0.00 uM) of the same compound?
Its percentage resazurin turnover is -0.676% and -1% and -0.75%.

What about the “Median REMA values” [11] of the same compound?
Its value is 0.0503%.

What about the percentage resazurin turnover [11] of the same compound?
Its percentage resazurin turnover is 0.0503% and -0.121% and 0.102%.

What about the “Median REMA values” (Lev 1000 ng/mL, PABN 0.00 uM) of the same compound?
The value was -0.383%.

What about the percentage resazurin turnover (Lev 1000 ng/mL, PABN 0.00 uM) of the same compound?
The percentage resazurin turnover was -0.346% and -0.646% and -0.383%.
